In article PMC4138103 (PLoS ONE, 2014):
Like-named read-outs stand apart in the source and are kept apart here.

Test system: Sprague-Dawley rats
Assay: Organ weights
Assay type: in vivo, Rattus norvegicus
Set-up: key to Dose response, Ovaries weight: D: significant dose response (for results see Table 2 in the text); T: significant trend
Conditions: for Emax: Rattus norvegicus; for Organ weight, Adrenals / Organ weight, Brain / Organ weight, Heart / Organ weight, Kidneys / Organ weight, Ovaries / Organ weight, Pituitary / Organ weight, Spleen / Organ weight, Thymus / Organ weight, Thyroid gland / Organ weight, Uterus: group mean
Protocol: At the end of the treatment period (males on study day 28–31, females on study day 28–32) the rats were anesthetized with CO2/O2 (70/30%). Blood samples were drawn from the left ventricle using Venoject needles (Terumo) and Vacuette EDTA and serum blood collection tubes, and the rats were killed by exsanguination. EDTA blood was used for hematology investigations (see below). Serum was separated, divided into aliquots, frozen in liquid nitrogen and stored at −70°C for further analysis (see below). A complete necropsy (macroscopic observations, tissue sampling for molecular biology, biochemistry, histopathology, analytical chemistry and organ weights) was performed on each rat. The weights of the following organs were recorded: adrenals, brain, epididymides, heart, kidneys, liver, lungs, ovaries, pituitary, prostate (ventral), seminal vesicles, spleen, testes, thymus, thyroids (with parathyroids) and uterus. For molecular biology and biochemical analyses samples from brain, liver, kidney, bones, and several other tissues were snap frozen in liquid nitrogen and stored at −80°C for further analysis. […] Tissue samples for histopathology were preserved in 10% neutral buffered formalin except testis and epididymis, which were fixed in Bouin's solution for 24 h after which they were transferred into 70% ethanol.
Data were also analyzed using the BMD method, which is based on dose-response modeling of the full data set using a nested family of exponential and Hill models. The analyses were done on data of males and females combined, using sex as a covariate. […] In that case, different Critical Effect Doses (CEDs) and CEDs at the lowest bound of the confidence interval (CED-L) were generated for each sex. If no difference between sexes is detected, a CED and CED-Ls for the combined data is generated. However, this was also done if the curve fits are close, and separate analyses for males and females were then performed manually. CEDs and CED-Ls were calculated at the predefined Critical Effect Size (CES) of 5% (EFSA standard) or 10%.

[1] = F, CES 5%, model E2, adipose tissue concentration based
[2] = F, CES 5%, model E4, adipose tissue concentration based
[3] = F, CES 10%, model E2, adipose tissue concentration based
[4] = F, CES 10%, model E4, adipose tissue concentration based
[5] = M, CES 5%, model E2, adipose tissue concentration based
[6] = M, CES 5%, model E4, adipose tissue concentration based
[7] = M, CES 10%, model E2, adipose tissue concentration based
[8] = M, CES 10%, model E4, adipose tissue concentration based
[9] = females, total dose 0-1700 mg/kg bw
[10] = females, CES 5%, total dose based
[11] = females, CES 10%, total dose based
[12] = females, adipose tissue concentration based
[13] = females, total dose 10 mg/kg bw
[14] = females, total dose 30 mg/kg bw
[15] = females, total dose 100 mg/kg bw
[16] = females, total dose 300 mg/kg bw
[17] = females, total dose 1000 mg/kg bw

With `Clc1cc(Cl)c(-c2cc(Cl)c(Cl)c(Cl)c2Cl)cc1Cl` [PCB 180, 2,2′,3′,4,4′,5,5′-heptachlorobiphenyl] the “CED, Thyroid gland weight” value [1] was 3010 µg/g lipid, the “CED-L, Thyroid gland weight” value [1] was 1698 µg/g lipid and the “CED, Liver weight” value [2] was 512 µg/g lipid. For the same compound, the “CED, Ovaries weight” value [2] was 201 µg/g lipid, the “CED-L, Liver weight” value [2] was 263 µg/g lipid and the “CED-L, Ovaries weight” value [2] was 31.7 µg/g lipid. The “CED, Thyroid gland weight” value [3] was 6190 µg/g lipid, the “CED-L, Thyroid gland weight” value [3] was 3488 µg/g lipid and the “CED, Liver weight” value [4] was 1090 µg/g lipid. The “CED, Ovaries weight” value [4] was 510 µg/g lipid, the “CED-L, Liver weight” value [4] was 565 µg/g lipid and the “CED-L, Ovaries weight” value [4] was 79.6 µg/g lipid. For the same compound, the “CED, Thyroid gland weight” value [5] was 1030 µg/g lipid, the “CED-L, Thyroid gland weight” value [5] was 720 µg/g lipid and the “CED, Liver weight” value [6] was 42.3 µg/g lipid. The “CED-L, Liver weight” value [6] was 19.8 µg/g lipid, the “CED, Thyroid gland weight” value [7] was 2010 µg/g lipid and the “CED-L, Thyroid gland weight” value [7] was 1407 µg/g lipid. For the same compound, the “CED, Liver weight” value [8] was 88.4 µg/g lipid, the “CED-L, Liver weight” value [8] was 41.3 µg/g lipid and the Emax (F, model E2, controls vs high dose according to the fitted model, read-out: Maximum response, Relative thyroid gland weight) was -16.5%. For the same compound, the Emax (F, model E2, controls vs high dose according to the fitted model, read-out: Maximum response, Thyroid gland weight) was -17.6%, the Emax (F, model E4, controls vs high dose according to the fitted model, read-out: Maximum response, Liver weight) was 43.1% and the Emax (F, model E4, controls vs high dose according to the fitted model, read-out: Maximum response, Ovaries weight) was 17%. For the same compound, the Emax (F, model E4, controls vs high dose according to the fitted model, read-out: Maximum response, Relative liver weight) was 44.8%, the Emax (females, controls vs high dose, fitted model, read-out: Liver weight, Maximum response) was 45% and the Emax (females, controls vs high dose, fitted model, read-out: Ovaries weight, Maximum response) was 17%. The Emax (females, controls vs high dose, fitted model, read-out: Relative liver weight, Maximum response) was 46.2%, the Emax (females, controls vs high dose, fitted model, read-out: Relative thyroid gland weight, Maximum response) was -17% and the Emax (females, controls vs high dose, fitted model, read-out: Thyroid gland weight, Maximum response) was -17.9%. It also gave an Emax (males, controls vs high dose, fitted model, read-out: Liver weight, Maximum response) of 66%, an Emax (males, controls vs high dose, fitted model, read-out: Relative liver weight, Maximum response) of 67% and an Emax (males, controls vs high dose, fitted model, read-out: Relative thymus weight, Maximum response) of 17.1%. The Emax (males, controls vs high dose, fitted model, read-out: Relative thyroid gland weight, Maximum response) was 45.2%, the Emax (F, model E5, controls vs high dose according to the fitted model, read-out: Maximum response, Relative ovaries weight) was 16% and the Emax (model E2, controls vs high dose according to the fitted model, read-out: Maximum response, Relative thymus weight) was 17.6%. It also gave an Emax (model E2, controls vs high dose according to the fitted model, read-out: Maximum response, Relative thyroid gland weight) of 45.7%, an Emax (model E2, controls vs high dose according to the fitted model, read-out: Maximum response, Thyroid gland weight) of 41.9% and an Emax (model E4, controls vs high dose according to the fitted model, read-out: Maximum response, Liver weight) of 65%. For the same compound, the Emax (model E4, controls vs high dose according to the fitted model, read-out: Maximum response, Relative liver weight) was 66%, the “Thyroid weight, max. decrease” value (females) was 18% and the “Dose response, Ovaries weight” value [9] was “D”. The “Dose response, Thyroid gland weight” value [9] was “D, T”, the “Liver weight, CED” value [10] was 225 mg/kg bw and the “Liver weight, CED-L” value [10] was 188 mg/kg bw. For the same compound, the “Ovaries weight, CED” value [10] was 46.8 mg/kg bw, the “Ovaries weight, CED-L” value [10] was 6.15 mg/kg bw and the “Thyroid gland weight, CED” value [10] was 443 mg/kg bw. For the same compound, the “Thyroid gland weight, CED-L” value [10] was 257 mg/kg bw, the “Liver weight, CED” value [11] was 439 mg/kg bw and the “Liver weight, CED-L” value [11] was 368 mg/kg bw. For the same compound, the “Ovaries weight, CED” value [11] was 120 mg/kg bw, the “Ovaries weight, CED-L” value [11] was 15.4 mg/kg bw and the “Thyroid gland weight, CED” value [11] was 910 mg/kg bw. The “Thyroid gland weight, CED-L” value [11] was 528 mg/kg bw, the “Liver weight, CED” value [12] was 512 µg/g lipid and the “Ovary weight, CED” value [12] was 201 µg/g lipid. The “Thyroid weight, CED” value [12] was 3010 µg/g lipid, the “Liver weight, Maximum response” value (females, controls vs high dose, fitted model) was 44.6% and the “Organ weight, Adrenals” value (females, total dose 3 mg/kg bw) was 0.0648 g. The “Organ weight, Brain” value (females, total dose 3 mg/kg bw) was 1.60 g, the “Organ weight, Heart” value (females, total dose 3 mg/kg bw) was 0.958 g and the “Organ weight, Kidneys” value (females, total dose 3 mg/kg bw) was 1.43 g. The “Organ weight, Ovaries” value (females, total dose 3 mg/kg bw) was 0.093 g, the “Organ weight, Pituitary” value (females, total dose 3 mg/kg bw) was 0.0112 g and the “Organ weight, Spleen” value (females, total dose 3 mg/kg bw) was 0.728 g. The “Organ weight, Thymus” value (females, total dose 3 mg/kg bw) was 0.528 g, the “Organ weight, Thyroid gland” value (females, total dose 3 mg/kg bw) was 0.0202 g and the “Organ weight, Uterus” value (females, total dose 3 mg/kg bw) was 0.372 g. For the same compound, the “Organ weight, Adrenals” value [13] was 0.0640 g, the “Organ weight, Brain” value [13] was 1.59 g and the “Organ weight, Heart” value [13] was 0.884 g. The “Organ weight, Kidneys” value [13] was 1.46 g, the “Organ weight, Ovaries” value [13] was 0.086 g and the “Organ weight, Pituitary” value [13] was 0.0124 g. For the same compound, the “Organ weight, Spleen” value [13] was 0.722 g, the “Organ weight, Thymus” value [13] was 0.470 g and the “Organ weight, Thyroid gland” value [13] was 0.0188 g. The “Organ weight, Uterus” value [13] was 0.492 g, the “Organ weight, Adrenals” value [14] was 0.0618 g and the “Organ weight, Brain” value [14] was 1.61 g. The “Organ weight, Heart” value [14] was 0.870 g, the “Organ weight, Kidneys” value [14] was 1.45 g and the “Organ weight, Ovaries” value [14] was 0.096 g. The “Organ weight, Pituitary” value [14] was 0.0124 g, the “Organ weight, Spleen” value [14] was 0.696 g and the “Organ weight, Thymus” value [14] was 0.494 g. For the same compound, the “Organ weight, Thyroid gland” value [14] was 0.0169 g, the “Organ weight, Uterus” value [14] was 0.353 g and the “Organ weight, Adrenals” value [15] was 0.0612 g. The “Organ weight, Brain” value [15] was 1.62 g, the “Organ weight, Heart” value [15] was 0.896 g and the “Organ weight, Kidneys” value [15] was 1.46 g. The “Organ weight, Ovaries” value [15] was 0.091 g, the “Organ weight, Pituitary” value [15] was 0.0122 g and the “Organ weight, Spleen” value [15] was 0.676 g. For the same compound, the “Organ weight, Thymus” value [15] was 0.480 g, the “Organ weight, Thyroid gland” value [15] was 0.0213 g and the “Organ weight, Uterus” value [15] was 0.368 g. The “Organ weight, Adrenals” value [16] was 0.0686 g, the “Organ weight, Brain” value [16] was 1.60 g and the “Organ weight, Heart” value [16] was 0.908 g. The “Organ weight, Kidneys” value [16] was 1.45 g, the “Organ weight, Ovaries” value [16] was 0.110 g and the “Organ weight, Pituitary” value [16] was 0.0121 g. The “Organ weight, Spleen” value [16] was 0.650 g, the “Organ weight, Thymus” value [16] was 0.498 g and the “Organ weight, Thyroid gland” value [16] was 0.0176 g. The “Organ weight, Uterus” value [16] was 0.352 g, the “Organ weight, Adrenals” value [17] was 0.0641 g and the “Organ weight, Brain” value [17] was 1.59 g. For the same compound, the “Organ weight, Heart” value [17] was 0.896 g, the “Organ weight, Kidneys” value [17] was 1.49 g and the “Organ weight, Ovaries” value [17] was 0.103 g. For the same compound, the “Organ weight, Pituitary” value [17] was 0.0112 g.
